From ChEMBL document CHEMBL1150033, “The squalestatins: effects of changes at the allylic centre in the C1 sidechain” (Bioorg Med Chem Lett, 1994)

Tests used:
[1] = target: T1, Squalene synthase (Rattus norvegicus, UniProt Q02769); assay: Inhibitory concentration against mammalian Squalene synthase
T1 sequence (Q02769 whole entry): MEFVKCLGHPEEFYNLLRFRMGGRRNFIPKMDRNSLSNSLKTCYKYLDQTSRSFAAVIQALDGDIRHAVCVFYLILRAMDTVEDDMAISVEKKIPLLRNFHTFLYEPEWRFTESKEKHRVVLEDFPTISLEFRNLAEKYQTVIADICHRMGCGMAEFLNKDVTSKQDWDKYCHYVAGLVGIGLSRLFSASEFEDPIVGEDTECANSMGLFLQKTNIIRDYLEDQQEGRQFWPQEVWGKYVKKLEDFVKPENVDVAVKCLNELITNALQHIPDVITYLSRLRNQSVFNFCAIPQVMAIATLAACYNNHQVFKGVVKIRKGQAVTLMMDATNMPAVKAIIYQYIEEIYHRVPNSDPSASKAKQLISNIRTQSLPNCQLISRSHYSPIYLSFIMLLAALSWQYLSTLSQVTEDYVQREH

[2] = Percent decrease in serum cholesterol levels after intravenous administration of 1 mg/Kg dose for 7 days; type: functional
[3] = Effective dose required for lipid lowering property in marmosets by oral administration for 7 days; type: functional; conditions: 168 h
[4] = Lipid lowering ability after intravenous administration of 10 mg/Kg single dose; type: functional

Structure (SMILES) | IC50 [1] [nM] | other results
C=C(CC[C@]12O[C@H](C(=O)O)[C@@](O)(C(=O)O)[C@](C(=O)O)(O1)[C@H](O)[C@H]2O)[C@@H](OC(=O)C(C)(C)C)[C@H](C)Cc1ccccc1 | 2290 | –
C=C(CC[C@]12O[C@H](C(=O)O)[C@@](O)(C(=O)O)[C@](C(=O)O)(O1)[C@H](OC(=O)/C=C/[C@@H](C)C[C@@H](C)CC)[C@H]2O)[C@@H](OC(C)=O)[C@H](C)Cc1ccccc1 [ZARAGOZIC ACIDS A] | – | Decrease [2]: 60%; ED50 [3]: 10 mg/kg/day
C=C(CC[C@]12O[C@H](C(=O)O)[C@@](O)(C(=O)O)[C@](C(=O)O)(O1)[C@H](O)[C@H]2O)[C@@H](NC(C)=O)[C@H](C)Cc1ccccc1 | 2220 | –
C=C(CC[C@]12O[C@H](C(=O)O)[C@@](O)(C(=O)O)[C@](C(=O)O)(O1)[C@H](O)[C@H]2O)[C@@H](OC(C)=O)[C@H](C)Cc1ccccc1 | – | Lowering [4]: 30%
C=C(CC[C@]12O[C@H](C(=O)O)[C@@](O)(C(=O)O)[C@](C(=O)O)(O1)[C@H](O)[C@H]2O)[C@H](NC(C)=O)[C@H](C)Cc1ccccc1 | > 10000 | –
CC(=O)NC/C(=C\[C@H](C)Cc1ccccc1)CC[C@]12O[C@H](C(=O)O)[C@@](O)(C(=O)O)[C@](C(=O)O)(O1)[C@H](O)[C@H]2O | > 10000 | –
C=C(CC[C@]12O[C@H](C(=O)O)[C@@](O)(C(=O)O)[C@](C(=O)O)(O1)[C@H](O)[C@H]2O)[C@@H](OCCC)[C@H](C)Cc1ccccc1 | 600 | –
C=C(CC[C@]12O[C@H](C(=O)O)[C@@](O)(C(=O)O)[C@](C(=O)O)(O1)[C@H](O)[C@H]2O)[C@@H](OCc1ccccc1)[C@H](C)Cc1ccccc1 | 1420 | –
C=C(CC[C@]12O[C@H](C(=O)O)[C@@](O)(C(=O)O)[C@](C(=O)O)(O1)[C@H](O)[C@H]2O)[C@@H](OC(=O)c1ccccc1)[C@H](C)Cc1ccccc1 | 532 | –
CC(=O)NC/C(=C\[C@@H](C)Cc1ccccc1)CC[C@]12O[C@H](C(=O)O)[C@@](O)(C(=O)O)[C@](C(=O)O)(O1)[C@H](O)[C@H]2O | > 10000 | –
C#CCO[C@H](C(=C)CC[C@]12O[C@H](C(=O)O)[C@@](O)(C(=O)O)[C@](C(=O)O)(O1)[C@H](O)[C@H]2O)[C@H](C)Cc1ccccc1 | 1200 | –

Continued by falling IC50 [1], values first:

IC50 [1] [nM] | Structure (SMILES) | other results
500 | C=C(CC[C@]12O[C@H](C(=O)O)[C@@](O)(C(=O)O)[C@](C(=O)O)(O1)[C@H](O)[C@H]2O)[C@@H](OC)[C@H](C)Cc1ccccc1 | –
252 | C=C(CC[C@]12O[C@H](C(=O)O)[C@@](O)(C(=O)O)[C@](C(=O)O)(O1)[C@H](O)[C@H]2O)[C@@H](O)[C@H](C)Cc1ccccc1 | –
49 | C=C(CC[C@]12O[C@H](C(=O)O)[C@@](O)(C(=O)O)[C@](C(=O)O)(O1)[C@H](O)[C@H]2O)[C@@H](OC(C)C)[C@H](C)Cc1ccccc1 | –
40 | C=C(CC[C@]12O[C@H](C(=O)O)[C@@](O)(C(=O)O)[C@](C(=O)O)(O1)[C@H](O)[C@H]2O)[C@@H](OCC)[C@H](C)Cc1ccccc1 | –
33 | C=C(CC[C@]12O[C@H](C(=O)O)[C@@](O)(C(=O)O)[C@](C(=O)O)(O1)[C@H](O)[C@H]2O)[C@@H](OCC1CC1)[C@H](C)Cc1ccccc1 | –
27 | C=CCO[C@H](C(=C)CC[C@]12O[C@H](C(=O)O)[C@@](O)(C(=O)O)[C@](C(=O)O)(O1)[C@H](O)[C@H]2O)[C@H](C)Cc1ccccc1 | –
5 | C=C(CC[C@]12O[C@H](C(=O)O)[C@@](O)(C(=O)O)[C@](C(=O)O)(O1)[C@H](OC(=O)/C=C/[C@@H](C)C[C@@H](C)CC)[C@H]2O)[C@@H](O)[C@H](C)Cc1ccccc1 | –
